# Data taken from patent US10842756B2 (BIOVIIIX S.R.L., priority 2015, dated 2020).
# What was measured:
# [1] = Release kinetics of the drug by micro-dialysis (QuixSep) into PBS pH 7.4; assay type: physicochemical; settings: 5FU solution in PBS at 200 μg/ml; up to 60 minutes; ambient temperature
# Experimental: In particular, as a receiving step a PBS (phosphate buffered saline) at pH=7.4 was analysed. The method used is micro-dialysis by means of a system known as QuixSep® with a Spectra/pore membrane, MWCO=3500 Da.
# The system was maintained under constant magnetic stirring, at ambient temperature, taking samples of the receiving step at predetermined times and re-integrating the collected volume.
# The samples were analysed and the values obtained were plotted considering the single collections and re-integrations from the preceding step, so as to obtain a dissolution/release profile.
# The data relating to the release percentage were calculated on the basis of a drug loading determined by LC-MS/MS analysis.
# [2] = bolus of 600 mg of 5FU, cited from earlier work
compound,measurement,setting,value
"O=c1[nH]cc(F)c(=O)[nH]1 [Batch 5FU, 5-fluorouracil]",dissolution of the free drug,[1],70%
same,plasmatic concentration of 5FU,[2]; after 25 minutes,10 µg/mL
same,Cmax,[2]; body surface of 1.7,about 50 μg/ml
